Laboratory results as given in US6960678B2, “Silanol enzyme inhibitors” (The Research Foundation of State University of New York, priority 1996, dated 2005).
Like-named read-outs stand apart in the source and are kept apart here.

Experiments:
[1] = target: T1, recombinant HIV-1 protease (Human immunodeficiency virus type 1 group M subtype B, UniProt P04585); test: HIV-1 protease inhibition, cleavage of substrate polypeptide, HPLC-based detection; type: biochemical
T1 construct: recombinant HIV-1 protease
Text: The standard test procedure for HIV-1 protease inhibition uses recombinant HIV-1 protease in an assay which monitors cleavage of a substrate polypeptide using an HPLC-based detection system. Proc. Nat. Acad. Sci. 86, 9752 (1989).

HIV-protease enzyme = target: T2, HIV-protease enzyme (Human immunodeficiency virus type 1 group M subtype B, UniProt P04585); test: HIV-protease enzyme inhibition (Ki); type: biochemical, HIV-1
T2 construct: tested against HIV-protease enzyme (Ki)

[2] = storage stability as solid or in solution (polymerization / oligomerization); type: physicochemical
Text: The compounds are stable and can be stored for weeks or longer at room temperature without noticeable decomposition in either solid or solution form. In addition, there is no intrinsic toxicity associated with silicon (Friedberg, K. D. and Schiller, E., Handbook on Toxicity of Inorganic Compounds, Eds. Seiler H, G., and Sigel, H.; Marcel Dekker, New York, 1988, pp. 595-617).
The C2 symmetry of the HIV protease has led to the development of C2 symmetric inhibitors such as Merck's L-700, 417. The silanediol analog 9a was prepared from the commercially available dichlorodiphenylsilane. Treatment of this dichlorosilane with the enantiomerically pure lithium reagent 53b led to the symmetric diether 54 in 75% yield. Cleavage of the ethers and oxidation to the diacid was followed by preparation of the diamide 56. For this study, N-benzyl amides were used as the simplest first analog. Hydrolysis of diphenylsilane 56 to the silanediol 9a was effected by treatment with triflic acid in dichloromethane at 0° C. for ten to 30 minutes. Under these conditions, both phenyl groups on silicon are lost very rapidly. We believe that the intermediate formed is not a di-triflate, but is the spirocyclic intermediate 57. Addition of the triflic acid-derived intermediate to an aqueous phase (either acidic, buffered, or basic) serves to finish hydrolysis to the diol 9a. […]

[3] = system: angiotensin-converting enzyme; conditions: Galardy and Kortylewicz 1985; cited from earlier work
HIV-1 virus = test: antiviral cell culture assay (IC90); type: cell-based
[4] = HIV-protease enzyme, read-out: Ki

O=C(NCc1ccccc1)[C@H](Cc1ccccc1)C[Si](O)(O)C[C@@H](Cc1ccccc1)C(=O)NCc1ccccc1 [Compound 9a, Di-benzyl 2-(S)-6-(S)-dibenzyl-4,4-dihydroxy-4-sila-heptanediamide]
IC50 [1]: 5.6 µM | Ki (HIV-protease enzyme): 3.16 µM | storage stability of the pure diol ([2]; as a solid or in deuterochloroform solution, for weeks): without polymerization | stability in DMSO ([2]; taken up in DMSO, one week): fully stable

O=C(NCc1ccccc1)C(Cc1ccccc1)C[Si](O)(CC(Cc1ccccc1)C(=O)NCc1ccccc1)O[Si](O)(CC(Cc1ccccc1)C(=O)NCc1ccccc1)CC(Cc1ccccc1)C(=O)NCc1ccccc1 [Compound 60, 1,3-dihydroxy-1,1,3-3-tetra(3-[2-(S)-2-phenylmethylpropionyl])-disiloxane tetra(N-phenylmethylamide)]
Ki (HIV-protease enzyme; [4]): 4.67 µM

O=C(NCc1ccccc1)C(Cc1ccccc1)C[Si]1(CC(Cc2ccccc2)C(=O)NCc2ccccc2)O[Si](CC(Cc2ccccc2)C(=O)NCc2ccccc2)(CC(Cc2ccccc2)C(=O)NCc2ccccc2)O[Si](CC(Cc2ccccc2)C(=O)NCc2ccccc2)(CC(Cc2ccccc2)C(=O)NCc2ccccc2)O[Si](CC(Cc2ccccc2)C(=O)NCc2ccccc2)(CC(Cc2ccccc2)C(=O)NCc2ccccc2)O1 [Compound 61, 1,1,3,3,5,5,7,7-octa(3-[2-(S)-2-phenylmethylpropionyl)]-cyclotetrasiloxane octa(N-phenylmethylamide)]
Ki (HIV-protease enzyme; [4]): 2.3 µM

C[Si](C)(O)O [dimethylsilanediol]
inhibitor of angiotensin-converting enzyme [3]: inactive

CC(C)(C)NC(=O)[C@@H]1CN(Cc2cccnc2)CCN1C[C@@H](O)C[C@@H](Cc1ccccc1)C(=O)N[C@H]1c2ccccc2C[C@H]1O [indinavir, reference compound]
IC90 (HIV-1 virus; Human immunodeficiency virus 1): 0.033 µM

Di-[1-(S)-(2,(R)-hydroxyindanyl)]2-(S)-6-(S)-dibenzyl-4,4-dihydroxy-4-sila-heptanediamide [Compound 9b]
IC90 (HIV-1 virus): 0.17 µM | Ki (HIV-protease enzyme; [4]): 0.0027 µM
